Reference: publication PMC9775191, “A Subset Screen of the Compounds Australia Scaffold Library Identifies 7-Acylaminodibenzoxazepinones as Potent and Selective Hits for Anti-Giardia Drug Discovery” (Biomedicines, 2022)

What follows are compounds tested on Acinetobacter baumannii (ATCC 19606) (assay: Anti-bacterial activity assay). Details: ATCC19606, 50 µM.
Assay type: cell-based
Outline: (§1)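 Compounds tested once at 50 µM in duplicate against mid-log cultures at 5 × 10^5 CFU/mL, incubated 18 h at 37 °C without shaking. Growth read by absorbance at 600 nm; percentage inhibition calculated relative to bacteria-only wells. Vancomycin (Gram-positive) and colistin (Gram-negative) served as plate controls.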

Row | Structure (SMILES) | inhibition at 50 µM [%]
1 | O=C(Cc1csc2nc(-c3ccccc3)cn12)Nc1ccc(Cl)cc1 [SN00796218, Clc1ccc(cc1)NC(=O)Cc1csc2nc(cn12)c1ccccc1] | 4.35
2 | Cn1nccc1-c1cccc(-c2noc(-c3cccc(F)c3)n2)c1 [SN00798315, Fc1cccc(c1)c1onc(n1)c1cccc(c1)c1ccnn1C] | 1.7
3 | Cc1cccc(CNS(=O)(=O)c2cc(-c3csc(C)n3)sc2C)c1 [SN00798431, Cc1cccc(CNS(=O)(=O)c2cc(sc2C)c2csc(C)n2)c1] | 42.5
4 | Cc1ccc(C(=O)Nc2cc(-c3nc(C)cs3)sc2C)cc1 [SN00798457, Cc1ccc(cc1)C(=O)Nc1cc(sc1C)c1scc(C)n1] | -2.12

The compounds below were run on Klebsiella pneumoniae (ATCC 700603) (assay: Anti-bacterial activity assay). Details: ATCC700603, 50 µM, read-out: Bacterial Inhibition K. pneumoniae.
Assay type: cell-based
Outline: as §1

Row | Structure (SMILES) | inhibition at 50 µM [%]
5 | O=C(Cc1csc2nc(-c3ccccc3)cn12)Nc1ccc(Cl)cc1 [SN00796218, Clc1ccc(cc1)NC(=O)Cc1csc2nc(cn12)c1ccccc1] | 3.63
6 | Cn1nccc1-c1cccc(-c2noc(-c3cccc(F)c3)n2)c1 [SN00798315, Fc1cccc(c1)c1onc(n1)c1cccc(c1)c1ccnn1C] | 9.56
7 | Cc1cccc(CNS(=O)(=O)c2cc(-c3csc(C)n3)sc2C)c1 [SN00798431, Cc1cccc(CNS(=O)(=O)c2cc(sc2C)c2csc(C)n2)c1] | 13.7
8 | Cc1ccc(C(=O)Nc2cc(-c3nc(C)cs3)sc2C)cc1 [SN00798457, Cc1ccc(cc1)C(=O)Nc1cc(sc1C)c1scc(C)n1] | 0.63

These compounds were tested on methicillin resistant Staphylococcus aureus (ATCC 43300) (assay: Anti-bacterial activity assay). Details: Staphylococcus aureus, ATCC43300, 50 µM; read-out: Bacterial Inhibition S. aureus.
Assay type: cell-based
Outline: as §1

Row | Structure (SMILES) | inhibition at 50 µM [%]
9 | O=C(Cc1csc2nc(-c3ccccc3)cn12)Nc1ccc(Cl)cc1 [SN00796218, Clc1ccc(cc1)NC(=O)Cc1csc2nc(cn12)c1ccccc1] | -2.23
10 | Cn1nccc1-c1cccc(-c2noc(-c3cccc(F)c3)n2)c1 [SN00798315, Fc1cccc(c1)c1onc(n1)c1cccc(c1)c1ccnn1C] | 1.07
11 | Cc1cccc(CNS(=O)(=O)c2cc(-c3csc(C)n3)sc2C)c1 [SN00798431, Cc1cccc(CNS(=O)(=O)c2cc(sc2C)c2csc(C)n2)c1] | 13.3
12 | Cc1ccc(C(=O)Nc2cc(-c3nc(C)cs3)sc2C)cc1 [SN00798457, Cc1ccc(cc1)C(=O)Nc1cc(sc1C)c1scc(C)n1] | -16.6

The compounds below were run on Escherichia coli (ATCC 25922) (assay: Anti-bacterial activity assay). Details: Escherichia coli, ATCC25922, 50 µM; read-out: Bacterial Inhibition E. coli.
Assay type: cell-based
Outline: as §1

Row | Structure (SMILES) | inhibition at 50 µM [%]
13 | O=C(Cc1csc2nc(-c3ccccc3)cn12)Nc1ccc(Cl)cc1 [SN00796218, Clc1ccc(cc1)NC(=O)Cc1csc2nc(cn12)c1ccccc1] | 3.03
14 | Cn1nccc1-c1cccc(-c2noc(-c3cccc(F)c3)n2)c1 [SN00798315, Fc1cccc(c1)c1onc(n1)c1cccc(c1)c1ccnn1C] | 2.55
15 | Cc1cccc(CNS(=O)(=O)c2cc(-c3csc(C)n3)sc2C)c1 [SN00798431, Cc1cccc(CNS(=O)(=O)c2cc(sc2C)c2csc(C)n2)c1] | -0.77
16 | Cc1ccc(C(=O)Nc2cc(-c3nc(C)cs3)sc2C)cc1 [SN00798457, Cc1ccc(cc1)C(=O)Nc1cc(sc1C)c1scc(C)n1] | 1.98

These compounds were tested on Neonatal foreskin fibroblast (NFF) cells (assay: Mammalian cell cytotoxicity assay (sulforhodamine B)). Details: Homo sapiens, NFF; 20 µM; ±SD.
Assay type: cell-based, human
Outline: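 Cytotoxicity against neonatal foreskin fibroblasts was read by sulforhodamine B staining, with media-only, untreated, DMSO-vehicle and chloroquine controls. Dose–response started at 100 µM. Selectivity index = NFF IC50 divided by G. duodenalis BRIS/91/HEPU/1279 IC50.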

Row | Structure (SMILES) | inhibition at 20 µM [%]
17 | O=C(Cc1csc2nc(-c3ccccc3)cn12)Nc1ccc(Cl)cc1 [SN00796218, Clc1ccc(cc1)NC(=O)Cc1csc2nc(cn12)c1ccccc1] | 29.7 ± 10.3
18 | Cn1nccc1-c1cccc(-c2noc(-c3cccc(F)c3)n2)c1 [SN00798315, Fc1cccc(c1)c1onc(n1)c1cccc(c1)c1ccnn1C] | -9 ± 1.9
19 | Cc1cccc(CNS(=O)(=O)c2cc(-c3csc(C)n3)sc2C)c1 [SN00798431, Cc1cccc(CNS(=O)(=O)c2cc(sc2C)c2csc(C)n2)c1] | 19.3 ± 27
20 | Cc1ccc(C(=O)Nc2cc(-c3nc(C)cs3)sc2C)cc1 [SN00798457, Cc1ccc(cc1)C(=O)Nc1cc(sc1C)c1scc(C)n1] | 16.3 ± 20.4

Same assay, conditions: Table S2; NFF vs 48 h Giardia IC50

Row | Structure (SMILES) | SI (48h Gd)
21 | Cn1nccc1-c1cccc(-c2noc(-c3cccc(F)c3)n2)c1 [SN00798315, Fc1cccc(c1)c1onc(n1)c1cccc(c1)c1ccnn1C] | > 4
22 | Cc1cccc(CNS(=O)(=O)c2cc(-c3csc(C)n3)sc2C)c1 [SN00798431, Cc1cccc(CNS(=O)(=O)c2cc(sc2C)c2csc(C)n2)c1] | > 3

Each compound was assayed on G. duodenalis BRIS/91/HEPU/1279 (assay: Primary Giardia screen at 10 µM (live-cell imaging, automated counting)). Details: Giardia duodenalis, 24 h, first singlicate assay, read-out: % Inhibition n=1 24h.
Assay type: cell-based, Giardia duodenalis
Outline: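 Compounds were tested once each at 10 μM final (0.2% DMSO) in culture medium under 3% O2, 5% CO2 in N2. Growth was read at 24 and 48 h by live-cell imaging with automated counting, and inhibition expressed as percent growth versus 0.2% DMSO vehicle after media-only background subtraction.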

Row | Structure (SMILES) | inhibition at 10 µM [%]
23 | O=C(Cc1csc2nc(-c3ccccc3)cn12)Nc1ccc(Cl)cc1 [SN00796218, Clc1ccc(cc1)NC(=O)Cc1csc2nc(cn12)c1ccccc1] | 47.2
24 | Cn1nccc1-c1cccc(-c2noc(-c3cccc(F)c3)n2)c1 [SN00798315, Fc1cccc(c1)c1onc(n1)c1cccc(c1)c1ccnn1C] | 24.1
25 | Cc1cccc(CNS(=O)(=O)c2cc(-c3csc(C)n3)sc2C)c1 [SN00798431, Cc1cccc(CNS(=O)(=O)c2cc(sc2C)c2csc(C)n2)c1] | 30.2
26 | Cc1ccc(C(=O)Nc2cc(-c3nc(C)cs3)sc2C)cc1 [SN00798457, Cc1ccc(cc1)C(=O)Nc1cc(sc1C)c1scc(C)n1] | 39.3

Same assay, conditions: Giardia duodenalis, 24 h, re-assessment, read-out: % Inhibition n=2 24h

Row | Structure (SMILES) | inhibition at 10 µM [%]
27 | O=C(Cc1csc2nc(-c3ccccc3)cn12)Nc1ccc(Cl)cc1 [SN00796218, Clc1ccc(cc1)NC(=O)Cc1csc2nc(cn12)c1ccccc1] | 48
28 | Cn1nccc1-c1cccc(-c2noc(-c3cccc(F)c3)n2)c1 [SN00798315, Fc1cccc(c1)c1onc(n1)c1cccc(c1)c1ccnn1C] | 11.1
29 | Cc1cccc(CNS(=O)(=O)c2cc(-c3csc(C)n3)sc2C)c1 [SN00798431, Cc1cccc(CNS(=O)(=O)c2cc(sc2C)c2csc(C)n2)c1] | 12.3
30 | Cc1ccc(C(=O)Nc2cc(-c3nc(C)cs3)sc2C)cc1 [SN00798457, Cc1ccc(cc1)C(=O)Nc1cc(sc1C)c1scc(C)n1] | 16.7

Same assay, conditions: Giardia duodenalis, 24 h, read-out: Average % Inhibition 24h

Row | Structure (SMILES) | inhibition at 10 µM [%]
31 | O=C(Cc1csc2nc(-c3ccccc3)cn12)Nc1ccc(Cl)cc1 [SN00796218, Clc1ccc(cc1)NC(=O)Cc1csc2nc(cn12)c1ccccc1] | 47.6
32 | Cn1nccc1-c1cccc(-c2noc(-c3cccc(F)c3)n2)c1 [SN00798315, Fc1cccc(c1)c1onc(n1)c1cccc(c1)c1ccnn1C] | 17.6
33 | Cc1cccc(CNS(=O)(=O)c2cc(-c3csc(C)n3)sc2C)c1 [SN00798431, Cc1cccc(CNS(=O)(=O)c2cc(sc2C)c2csc(C)n2)c1] | 21.2
34 | Cc1ccc(C(=O)Nc2cc(-c3nc(C)cs3)sc2C)cc1 [SN00798457, Cc1ccc(cc1)C(=O)Nc1cc(sc1C)c1scc(C)n1] | 28

Same assay, conditions: Giardia duodenalis, 48 h, first singlicate assay, read-out: % Inhibition n=1 48h

Row | Structure (SMILES) | inhibition at 10 µM [%]
35 | O=C(Cc1csc2nc(-c3ccccc3)cn12)Nc1ccc(Cl)cc1 [SN00796218, Clc1ccc(cc1)NC(=O)Cc1csc2nc(cn12)c1ccccc1] | 59.9
36 | Cn1nccc1-c1cccc(-c2noc(-c3cccc(F)c3)n2)c1 [SN00798315, Fc1cccc(c1)c1onc(n1)c1cccc(c1)c1ccnn1C] | 66.9
37 | Cc1cccc(CNS(=O)(=O)c2cc(-c3csc(C)n3)sc2C)c1 [SN00798431, Cc1cccc(CNS(=O)(=O)c2cc(sc2C)c2csc(C)n2)c1] | 59.2
38 | Cc1ccc(C(=O)Nc2cc(-c3nc(C)cs3)sc2C)cc1 [SN00798457, Cc1ccc(cc1)C(=O)Nc1cc(sc1C)c1scc(C)n1] | 60

Same assay, conditions: Giardia duodenalis, 48 h, re-assessment, read-out: % Inhibition n=2 48h

Row | Structure (SMILES) | inhibition at 10 µM [%]
39 | O=C(Cc1csc2nc(-c3ccccc3)cn12)Nc1ccc(Cl)cc1 [SN00796218, Clc1ccc(cc1)NC(=O)Cc1csc2nc(cn12)c1ccccc1] | 75.5
40 | Cn1nccc1-c1cccc(-c2noc(-c3cccc(F)c3)n2)c1 [SN00798315, Fc1cccc(c1)c1onc(n1)c1cccc(c1)c1ccnn1C] | 61.2
41 | Cc1cccc(CNS(=O)(=O)c2cc(-c3csc(C)n3)sc2C)c1 [SN00798431, Cc1cccc(CNS(=O)(=O)c2cc(sc2C)c2csc(C)n2)c1] | 68.1
42 | Cc1ccc(C(=O)Nc2cc(-c3nc(C)cs3)sc2C)cc1 [SN00798457, Cc1ccc(cc1)C(=O)Nc1cc(sc1C)c1scc(C)n1] | 52.2

Same assay, conditions: Giardia duodenalis, 48 h, read-out: Average % Inhibition 48h

Row | Structure (SMILES) | inhibition at 10 µM [%]
43 | O=C(Cc1csc2nc(-c3ccccc3)cn12)Nc1ccc(Cl)cc1 [SN00796218, Clc1ccc(cc1)NC(=O)Cc1csc2nc(cn12)c1ccccc1] | 67.7
44 | Cn1nccc1-c1cccc(-c2noc(-c3cccc(F)c3)n2)c1 [SN00798315, Fc1cccc(c1)c1onc(n1)c1cccc(c1)c1ccnn1C] | 64
45 | Cc1cccc(CNS(=O)(=O)c2cc(-c3csc(C)n3)sc2C)c1 [SN00798431, Cc1cccc(CNS(=O)(=O)c2cc(sc2C)c2csc(C)n2)c1] | 63.6
46 | Cc1ccc(C(=O)Nc2cc(-c3nc(C)cs3)sc2C)cc1 [SN00798457, Cc1ccc(cc1)C(=O)Nc1cc(sc1C)c1scc(C)n1] | 56.1

What follows are compounds tested on G. duodenalis BRIS/91/HEPU/1279 (assay: Giardia dose response assay, assemblage B). Details: Giardia duodenalis, 24 h, read-out: G. duodenalis IC50 24h, Table S2; 24 h; ±SD; max 10 µM.
Assay type: cell-based, Giardia duodenalis
Outline: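 Assemblage B trophozoites (BRIS/91/HEPU/1279, 1.5 × 10^4 parasites/well) faced 8–12-point doubling dilutions in duplicate, incubated 48 h at 37 °C under 3% O2, 5% CO2 in N2. Parasites were imaged and counted at 24 and 48 h. Growth inhibition was taken versus vehicle controls minus background, with IC50 by log-linear interpolation.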

Row | Structure (SMILES) | IC50 [µM]
47 | O=C(Cc1csc2nc(-c3ccccc3)cn12)Nc1ccc(Cl)cc1 [SN00796218, Clc1ccc(cc1)NC(=O)Cc1csc2nc(cn12)c1ccccc1] | > 10
48 | Cn1nccc1-c1cccc(-c2noc(-c3cccc(F)c3)n2)c1 [SN00798315, Fc1cccc(c1)c1onc(n1)c1cccc(c1)c1ccnn1C] | > 10
49 | Cc1cccc(CNS(=O)(=O)c2cc(-c3csc(C)n3)sc2C)c1 [SN00798431, Cc1cccc(CNS(=O)(=O)c2cc(sc2C)c2csc(C)n2)c1] | > 10
50 | Cc1ccc(C(=O)Nc2cc(-c3nc(C)cs3)sc2C)cc1 [SN00798457, Cc1ccc(cc1)C(=O)Nc1cc(sc1C)c1scc(C)n1] | > 10

Same assay, conditions: Giardia duodenalis, 48 h, Table S2; 48 h; ±SD; max 10 µM; read-out: G. duodenalis IC50 48h

Row | Structure (SMILES) | IC50 [µM]
51 | O=C(Cc1csc2nc(-c3ccccc3)cn12)Nc1ccc(Cl)cc1 [SN00796218, Clc1ccc(cc1)NC(=O)Cc1csc2nc(cn12)c1ccccc1] | > 10
52 | Cn1nccc1-c1cccc(-c2noc(-c3cccc(F)c3)n2)c1 [SN00798315, Fc1cccc(c1)c1onc(n1)c1cccc(c1)c1ccnn1C] | 4.74 ± 6.4
53 | Cc1cccc(CNS(=O)(=O)c2cc(-c3csc(C)n3)sc2C)c1 [SN00798431, Cc1cccc(CNS(=O)(=O)c2cc(sc2C)c2csc(C)n2)c1] | 5.93 ± 5.7
54 | Cc1ccc(C(=O)Nc2cc(-c3nc(C)cs3)sc2C)cc1 [SN00798457, Cc1ccc(cc1)C(=O)Nc1cc(sc1C)c1scc(C)n1] | > 10
